In ChEMBL document CHEMBL3046453, “Abdominal color of the Asian citrus psyllid, Diaphorina citri, is associated with susceptibility to various insecticides” (2013):
≈ marks a conversion by molar mass, not a printed value.

Key:
Format in all cases: functional
Conditions in all cases: for LC50: Diaphorina citri, 48 h
[1] = system: Diaphorina citri; assay: Insecticidal activity against gray/brown Diaphorina citri in citrus leaf assessed as mortality after 48 hr by leaf-dip petridish bioassay method
[2] = system: Diaphorina citri; assay: Insecticidal activity against orange/yellow Diaphorina citri in citrus leaf assessed as mortality after 48 hr by leaf-dip petridish bioassay method
[3] = system: Diaphorina citri; assay: Insecticidal activity against blue/green Diaphorina citri in citrus leaf assessed as mortality after 48 hr by leaf-dip petridish bioassay method

Which LC95 [1] does the source give for O=[N+]([O-])/N=C1\NCCN1Cc1ccc(Cl)nc1 [IMIDACLOPRID] here?
Its LC95 is 1.59 µg/mL (≈ 6.22 µM).

What about the LC50 [1] of the same molecule?
Its LC50 is 0.41 µg/mL (≈ 1.6 µM).

And the LC95 [2]?
The LC95 was 1.09 µg/mL (≈ 4.26 µM).

What about the LC50 [2] of the same molecule?
Its LC50 is 0.18 µg/mL (≈ 0.704 µM).

What about the LC95 [3] of the same molecule?
The LC95 was 1.84 µg/mL (≈ 7.2 µM).

What about the LC50 [3] of the same molecule?
Its LC50 is 0.4 µg/mL (≈ 1.56 µM).

With CC1(C)C(C(=O)OC(C#N)c2cccc(Oc3ccccc3)c2)C1(C)C (centres undefined) [FENPROPATHRIN] as the molecule, how does the LC95 [3] read?
The LC95 was 29.21 µg/mL (≈ 83.6 µM).

What about the LC50 [3] of the same molecule?
The LC50 was 0.85 µg/mL (≈ 2.43 µM).

Which results are given for CCOP(=S)(OCC)Oc1nc(Cl)c(Cl)cc1Cl [CHLORPYRIFOS]?
LC95 [1]: 11.62 µg/mL (≈ 33.1 µM); LC50 [1]: 3.62 µg/mL (≈ 10.3 µM); LC95 [2]: 2.67 µg/mL (≈ 7.62 µM); LC50 [2]: 0.92 µg/mL (≈ 2.62 µM); LC95 [3]: 12.12 µg/mL (≈ 34.6 µM); LC50 [3]: 3.93 µg/mL (≈ 11.2 µM)
